Test results: patent US6781000B1, “Alpha-ketoamide inhibitors of 20S proteasome” (CV Theurapeutics, Inc., priority 1998, dated 2004)
pIC50: −log10 of the molar value.

The molecules below were run against T1, chymotrypsin-like activity of 20S proteasome (Bos taurus, UniProt Q2TBX6+Q32KL2) (assay: 20S proteasome chymotryptic activity inhibition assay (Suc-Leu-Leu-Val-Tyr-AMC cleavage)). Details: 2 μg 20S proteasome from bovine brain, 50 μM fluorogenic substrate, 15 minutes at 37° C., pH7.5.
T1 construct: was purified to homogeneity from bovine brain according to published methods; from tissue; host or cells: bovine brain
Type: biochemical
Experimental: Compounds of this invention prepared according to the method of Example 1 were tested as follows. The 20S catalytic subunit of the proteasome (also known as the multicatalytic proteinase complex) was purified to homogeneity from bovine brain according to published methods (Wilk S. and Orlowski,M 1983, 40 842 J.Neurochem). The chymotryptic activity of the complex is measured by the increase in fluorescence following cleavage of the substrate peptide succinyl-leucine-leucine-valine-tyrosine-7-amino-4methyl coumarin. The standard in vitro assay consists of 2 μg 20S proteasome, 0.1-100 μg/ml proteasome inhibitor in 200 μl 50 mM HEPES, containing 0.1% sodium dodecyl sulphate, pH7.5. The proteolytic reaction is initiated by the addition of 50 μM flourogenic peptide substrate and allowed to progress for 15 minutes at 37° C. The reaction is terminated by the addition of 100 μL of 100 mM acetate buffer, pH4.0. The rate of proteolysis is directly proportional to the amount of liberated aminomethylcoumarin which is measured by fluorescent spectroscopy (EX 370 nm, EM 430 nm).
For CC(C)CC(NC(=O)C(CC(C)C)NC(=O)C(CC(C)C)NC(=O)C(=O)Cc1c[nH]c2ccccc12)C(=O)O (stereo not drawn) [Compound 28], the “IC50 for the inhibition of the chymotrypsin-like activity of 20S proteasome” value (“IC50 for the inhibition” for short) was >10 µg/mL. With CCC(C)C(NC(=O)C(CC(C)C)NC(=O)C(CC(C)C)NC(=O)C(=O)Cc1c[nH]c2ccccc12)C(=O)O (stereo not drawn) [Compound 29] the “IC50 for the inhibition” value was >10 µg/mL. For CC(C)CC(NC(=O)C(=O)Cc1c[nH]c2ccccc12)C(=O)NC(CC(C)C)C(=O)NC(C)C(=O)O (stereo not drawn) [Compound 30], the pIC50 was < 4.70. CC(C)CC(NC(=O)C(=O)Cc1c[nH]c2ccccc12)C(=O)NC(CC(C)C)C(=O)NC(Cc1ccc(O)cc1)C(=O)O (stereo not drawn) [Compound 31] was tested, and the “IC50 for the inhibition” value was >10 µg/mL. For CC(C)CC(NC(=O)C(=O)Cc1c[nH]c2ccccc12)C(=O)NC(CC(C)C)C(=O)NC(C(=O)O)C(C)C (stereo not drawn) [Compound 32], the “IC50 for the inhibition” value was >10 µg/mL. For CC(C)CC(NC(=O)C(CC(C)C)NC(=O)C(CC(C)C)NC(=O)C(=O)Cc1c[nH]c2ccccc12)C(=O)O (stereo not drawn) [Compound 33], the “IC50 for the inhibition” value was >10 µg/mL. In the case of CCC(C)C(NC(=O)C(CC(C)C)NC(=O)C(CC(C)C)NC(=O)C(=O)Cc1c[nH]c2ccccc12)C(=O)O (stereo not drawn) [Compound 34], the “IC50 for the inhibition” value was >10 µg/mL. CC(C)CC(NC(=O)C(=O)Cc1c[nH]c2ccccc12)C(=O)NC(CC(C)C)C(=O)NC(C)C(=O)O (stereo not drawn) [Compound 35] was tested, and the “IC50 for the inhibition” value was >10 µg/mL. For CC(C)CC(NC(=O)C(=O)Cc1c[nH]c2ccccc12)C(=O)NC(CC(C)C)C(=O)NC(Cc1ccc(O)cc1)C(=O)O (stereo not drawn) [Compound 36], the “IC50 for the inhibition” value was >10 µg/mL. In the case of CC(C)CC(NC(=O)CNC(=O)C(=O)Cc1c[nH]c2ccccc12)C(=O)NC(C(=O)O)C(C)C (stereo not drawn) [Compound 37], the “IC50 for the inhibition” value was >10 µg/mL. With CC(C)CC(NC(=O)CCNC(=O)C(=O)Cc1c[nH]c2ccccc12)C(=O)NC(C(=O)O)C(C)C (stereo not drawn) [Compound 38] the “IC50 for the inhibition” value was >10 µg/mL. CCCCC(NC(=O)C(=O)Cc1c[nH]c2ccccc12)C(=O)NC(CC(C)C)C(=O)NC(C(=O)O)C(C)C (stereo not drawn) [Compound 39] was tested, and the “IC50 for the inhibition” value was >10 µg/mL. With CC(C)C[C@@H](NC(=O)[C@H](Cc1ccccc1)NC(=O)C(=O)Cc1c[nH]c2ccccc12)C(=O)N[C@H](C(=O)O)C(C)C [Compound 40] the pIC50 was < 4.75. CC(C)CC(NC(=O)C(NC(=O)C(=O)Cc1c[nH]c2ccccc12)C(C)O)C(=O)NC(C(=O)O)C(C)C (stereo not drawn) [Compound 41] was tested, and the “IC50 for the inhibition” value was >10 µg/mL. With CC(C)CC(NC(=O)C(C)NC(=O)C(=O)Cc1c[nH]c2ccccc12)C(=O)NC(C(=O)O)C(C)C (stereo not drawn) [Compound 42] the “IC50 for the inhibition” value was >10 µg/mL. With CC(C)CC(NC(=O)C(CC(=O)O)NC(=O)C(=O)Cc1c[nH]c2ccccc12)C(=O)NC(C(=O)O)C(C)C (stereo not drawn) [Compound 43] the “IC50 for the inhibition” value was >10 µg/mL. For CC(C)CC(NC(=O)C(NC(=O)C(=O)Cc1c[nH]c2ccccc12)C(C)C)C(=O)NC(C(=O)O)C(C)C (stereo not drawn) [Compound 44], the “IC50 for the inhibition” value was >10 µg/mL. For CCCC(NC(=O)C(=O)Cc1c[nH]c2ccccc12)C(=O)NC(CC(C)C)C(=O)NC(C(=O)O)C(C)C (stereo not drawn) [Compound 45], the “IC50 for the inhibition” value was >10 µg/mL. In the case of CC(C)CC(NC(=O)C(Cc1ccc(O)cc1)NC(=O)C(=O)Cc1c[nH]c2ccccc12)C(=O)NC(C(=O)O)C(C)C (stereo not drawn) [Compound 46], the “IC50 for the inhibition” value was >10 µg/mL. With CCC(C)C(NC(=O)C(=O)Cc1c[nH]c2ccccc12)C(=O)NC(CC(C)C)C(=O)NC(C(=O)O)C(C)C (stereo not drawn) [Compound 47] the “IC50 for the inhibition” value was >10 µg/mL. For CC(C)CC(NC(=O)C(CC1CCCCC1)NC(=O)C(=O)Cc1c[nH]c2ccccc12)C(=O)NC(C(=O)O)C(C)C (stereo not drawn) [Compound 48], the “IC50 for the inhibition” value was >10 µg/mL. CC(C)CC(NC(=O)C(Cc1cccnc1)NC(=O)C(=O)Cc1c[nH]c2ccccc12)C(=O)NC(C(=O)O)C(C)C (stereo not drawn) [Compound 49] was tested, and the “IC50 for the inhibition” value was >10 µg/mL. For CC(C)CC(NC(=O)C(Cc1ccc2ccccc2c1)NC(=O)C(=O)Cc1c[nH]c2ccccc12)C(=O)NC(C(=O)O)C(C)C (stereo not drawn) [Compound 50], the “IC50 for the inhibition” value was >10 µg/mL. In the case of CC(C)C[C@@H](NC(=O)[C@H](Cc1ccc(-c2ccccc2)cc1)NC(=O)C(=O)Cc1c[nH]c2ccccc12)C(=O)N[C@H](C(=O)O)C(C)C [Compound 51], the pIC50 was < 4.81. With CC(C)CC(NC(=O)CNC(=O)C(=O)Cc1c[nH]c2ccccc12)C(=O)NCC(=O)O (stereo not drawn) [Compound 52] the “IC50 for the inhibition” value was >10 µg/mL. CC(C)CC(NC(=O)CCNC(=O)C(=O)Cc1c[nH]c2ccccc12)C(=O)NCC(=O)O (stereo not drawn) [Compound 53] was tested, and the pIC50 was < 4.65. In the case of CCCCC(NC(=O)C(=O)Cc1c[nH]c2ccccc12)C(=O)NC(CC(C)C)C(=O)NCC(=O)O (stereo not drawn) [Compound 54], the “IC50 for the inhibition” value was >10 µg/mL. For CC(C)CC(NC(=O)C(Cc1ccccc1)NC(=O)C(=O)Cc1c[nH]c2ccccc12)C(=O)NCC(=O)O (stereo not drawn) [Compound 55], the “IC50 for the inhibition” value was >10 µg/mL. With CC(C)CC(NC(=O)C(NC(=O)C(=O)Cc1c[nH]c2ccccc12)C(C)O)C(=O)NCC(=O)O (stereo not drawn) [Compound 56] the “IC50 for the inhibition” value was >10 µg/mL. CC(C)CC(NC(=O)C(C)NC(=O)C(=O)Cc1c[nH]c2ccccc12)C(=O)NCC(=O)O (stereo not drawn) [Compound 57] was tested, and the “IC50 for the inhibition” value was >10 µg/mL. For CC(C)C[C@@H](NC(=O)[C@H](CC(=O)O)NC(=O)C(=O)Cc1c[nH]c2ccccc12)C(=O)NCC(=O)O [Compound 58], the pIC50 was < 4.69. For CC(C)C[C@@H](NC(=O)[C@@H](NC(=O)C(=O)Cc1c[nH]c2ccccc12)C(C)C)C(=O)NCC(=O)O [Compound 59], the pIC50 was < 4.67. For CCCC(NC(=O)C(=O)Cc1c[nH]c2ccccc12)C(=O)NC(CC(C)C)C(=O)NCC(=O)O (stereo not drawn) [Compound 60], the “IC50 for the inhibition” value was >10 µg/mL. For CC(C)CC(NC(=O)C(Cc1ccc(O)cc1)NC(=O)C(=O)Cc1c[nH]c2ccccc12)C(=O)NCC(=O)O (stereo not drawn) [Compound 61], the “IC50 for the inhibition” value was >10 µg/mL. For CCC(C)C(NC(=O)C(=O)Cc1c[nH]c2ccccc12)C(=O)NC(CC(C)C)C(=O)NCC(=O)O (stereo not drawn) [Compound 62], the “IC50 for the inhibition” value was >10 µg/mL. In the case of CC(C)CC(NC(=O)C(CC1CCCCC1)NC(=O)C(=O)Cc1c[nH]c2ccccc12)C(=O)NCC(=O)O (stereo not drawn) [Compound 63], the “IC50 for the inhibition” value was >10 µg/mL. CC(C)CC(NC(=O)C(Cc1cccnc1)NC(=O)C(=O)Cc1c[nH]c2ccccc12)C(=O)NCC(=O)O (stereo not drawn) [Compound 64] was tested, and the “IC50 for the inhibition” value was >10 µg/mL. CC(C)CC(NC(=O)C(Cc1ccc2ccccc2c1)NC(=O)C(=O)Cc1c[nH]c2ccccc12)C(=O)NCC(=O)O (stereo not drawn) [Compound 65] was tested, and the “IC50 for the inhibition” value was >10 µg/mL. For CC(C)CC(NC(=O)C(Cc1ccc(-c2ccccc2)cc1)NC(=O)C(=O)Cc1c[nH]c2ccccc12)C(=O)NCC(=O)O (stereo not drawn) [Compound 66], the “IC50 for the inhibition” value was >10 µg/mL. CC(C)CC(NC(=O)CNC(=O)C(=O)Cc1c[nH]c2ccccc12)C(=O)NC(C)C(=O)O (stereo not drawn) [Compound 67] was tested, and the “IC50 for the inhibition” value was >10 µg/mL. For CC(C)CC(NC(=O)CCNC(=O)C(=O)Cc1c[nH]c2ccccc12)C(=O)NC(C)C(=O)O (stereo not drawn) [Compound 68], the “IC50 for the inhibition” value was >10 µg/mL. For CCCCC(NC(=O)C(=O)Cc1c[nH]c2ccccc12)C(=O)NC(CC(C)C)C(=O)NC(C)C(=O)O (stereo not drawn) [Compound 69], the “IC50 for the inhibition” value was >10 µg/mL. In the case of CC(C)CC(NC(=O)C(Cc1ccccc1)NC(=O)C(=O)Cc1c[nH]c2ccccc12)C(=O)NC(C)C(=O)O (stereo not drawn) [Compound 70], the “IC50 for the inhibition” value was >10 µg/mL. With CC(C)CC(NC(=O)C(NC(=O)C(=O)Cc1c[nH]c2ccccc12)C(C)O)C(=O)NC(C)C(=O)O (stereo not drawn) [Compound 71] the “IC50 for the inhibition” value was >10 µg/mL. CC(C)CC(NC(=O)C(C)NC(=O)OCc1c[nH]c2ccccc12)C(=O)NC(C)C(=O)O (stereo not drawn) [Compound 72] was tested, and the “IC50 for the inhibition” value was >10 µg/mL. For CC(C)CC(NC(=O)C(CC(=O)O)NC(=O)OCc1c[nH]c2ccccc12)C(=O)NC(C)C(=O)O (stereo not drawn) [Compound 73], the “IC50 for the inhibition” value was >10 µg/mL. For CC(C)CC(NC(=O)C(NC(=O)C(=O)Cc1c[nH]c2ccccc12)C(C)C)C(=O)NC(C)C(=O)O (stereo not drawn) [Compound 74], the “IC50 for the inhibition” value was >10 µg/mL. CCCC(NC(=O)C(=O)Cc1c[nH]c2ccccc12)C(=O)NC(CC(C)C)C(=O)NC(C)C(=O)O (stereo not drawn) [Compound 75] was tested, and the pIC50 was < 4.69. For CC(C)CC(NC(=O)C(Cc1ccc(O)cc1)NC(=O)C(=O)Cc1c[nH]c2ccccc12)C(=O)NC(C)C(=O)O (stereo not drawn) [Compound 76], the “IC50 for the inhibition” value was >10 µg/mL. CCC(C)C(NC(=O)C(=O)Cc1c[nH]c2ccccc12)C(=O)NC(CC(C)C)C(=O)NC(C)C(=O)O (stereo not drawn) [Compound 77] was tested, and the pIC50 was < 4.70. With CC(C)CC(NC(=O)C(CC1CCCCC1)NC(=O)C(=O)Cc1c[nH]c2ccccc12)C(=O)NC(C)C(=O)O (stereo not drawn) [Compound 78] the “IC50 for the inhibition” value was >10 µg/mL.
